# In patent publication US20080200428A1, “Antiproliferative Drug” (priority 2005, published 2008):
# pIC50: −log10 of the molar value. Marks after values point to notes of the source that are not given here.
# How the values were obtained:
# [1] = test system: SK-OV-3 human ovary carcinoma cells; test: In-vitro antiproliferative activity, MTT test; type: cell-based; details: 5 days treatment, MTT on day 6, read-out: IC50, concentration necessary to reduce cell growth to 50% of control
# Description: (§1) Antiproliferative activity of the conjugates was determined on 2 lines of human mammary carcinoma (MCF-7, MDA-MB-231), and on 2 lines of human ovary carcinoma (SK-OV-3, IGR-OV1) with different Reduced Folate Carrier (RFC) expression, and on a non-tumour line originating from healthy mammary ductal epithelium (HBL-100 line). Cells were incubated in 96-well plates for 5 days in complete medium (consisting of DMEM/F12, with 10% FBS, foetal bovine serum, 1% L-glutamine 100× (200 mM) and 1% penicillin-streptomycin (Euroclone) for MCF-7, IGROV-1 and MDA-MB-231; RPMI-1640 with 10% FBS, foetal bovine serum, 1% L-glutamine 100× (200 mM) and 1% penicillin-streptomycin (Euroclone) for SKOV-1; McCoy's with 10% FBS, foetal bovine serum, 1% L-glutamine 100× (200 mM) and 1% penicillin-streptomycin (Sigma) for HBL-100 at 37° C. and controlled atmosphere (5% CO2), with MTX-Na or with conjugate; the conjugates were tested at doses equimolar with those of MTX-Na, in the range 1-30 nM. Cytotoxicity was determined on day 6 (after 5 days treatments) by the MTT test, by measuring cell viability as the cell metabolic capacity to transform the tetrazolium salt of MTT in the blue formazan, by mitochondrial dehydrogenases; the blue colour is read at 570 nm with a spectrophotometer. The following conjugates were tested.
# [2] = test system: IGR-OV1 human ovary carcinoma cells; test: In-vitro antiproliferative activity, MTT test; type: cell-based; details: 5 days treatment, MTT on day 6, read-out: IC50, concentration necessary to reduce cell growth to 50% of control
# Description: as §1
# [3] = test system: MCF-7 human mammary carcinoma cells; test: In-vitro antiproliferative activity, MTT test; type: cell-based; details: 5 days treatment, MTT on day 6, read-out: IC50, concentration necessary to reduce cell growth to 50% of control
# Description: as §1
# [4] = test system: HBL-100 non-tumour line from healthy mammary ductal epithelium; test: In-vitro antiproliferative activity, MTT test; type: cell-based, human; details: 5 days treatment, MTT on day 6, read-out: IC50, concentration necessary to reduce cell growth to 50% of control
# Description: as §1
# B16/F10 melanoma cells = test: In-vivo antiproliferative activity: liver metastases after intraspleen implant of B16/F10 melanoma; design: species or system BD2F1 mice; details: for Animals free of macroscopically detectable liver metastases over total number of mice / Mice with metastases larger than 3 mm / Mice with more than 3 visible hepatic tumour nodules / Spleen weight: Day 21
# Description: BD2F1 mice weighing 18-20 g were implanted intraspleen (i.s) with 100.000 B16/F10 melanoma cells on Day 0, under sterile conditions and Zoletil® (70 mg/kg), anaesthesia, following surgical opening of peritoneum and spleen immobilisation. Tumour cells, suspended in diluted Matrigel® (150 μg/ml), were injected i.s. in a volume of 0.05 ml. The B16F10 melanoma cells were cultured in Modified Eagle Medium. Cells were maintained in a humidified 5% CO2 atmosphere at 37° C. Animals were then randomly divided into 5 groups (each of 7-8 female), implanted i.s. with 100.000 B16/F10 melanoma cells on Day 0, were treated i.v. (on Days 3, 6 and 9) with HA-MTX at 2, 1 and 0.50 mg/kg/day or MTX-Na at 8.5, 6 and 3 mg/kg/day. Doses are referred to equivalents of MTX. The data originate from 4 separate experiments.
# The evaluation of livers and counting of liver metastases under a low power stereo microscope equipped with a calibrated grid was performed on Day 21. Livers were then stored in formaldehyde for preparation for light microscopy observations.
# [5] = 3 mg MTX/kg/die i.v. on days 3, 6, 9
# [6] = 6 mg MTX/kg/die i.v. on days 3, 6, 9
# [7] = 8.5 mg MTX/kg/die i.v. on days 3, 6, 9
# [8] = 0.5 mg MTX/kg/die i.v. on days 3, 6, 9
# [9] = 1 mg MTX/kg/die i.v. on days 3, 6, 9
# [10] = 2 mg MTX/kg/die i.v. on days 3, 6, 9
molecule,measurement,setting,value
6-O-Butyryl-6-O-methotrexyl-hyaluronic acid [Ex 24],pIC50,[1],5.78
same,pIC50,[2],5.67
same,pIC50,[3],5.77
same,pIC50,[4],5.68
6-O-acetyl-6-O-methotrexyl-hyaluronic acid [Ex 21],pIC50,[1],5.74
same,pIC50,[2],5.56
same,pIC50,[3],5.71
same,pIC50,[4],5.69
"CN(Cc1cnc2nc(N)nc(N)c2n1)c1ccc(C(=O)N[C@@H](CCC(=O)O)C(=O)O)cc1 [MTX-Na, methotrexate, reference compound]",pIC50,[1],7.39
same,pIC50,[2],6.85
same,pIC50,[3],7.09
same,Animals free of macroscopically detectable liver metastases over total number of mice,B16/F10 melanoma cells; [5],6/16*
same,Mice with metastases larger than 3 mm,B16/F10 melanoma cells; [5],19%
same,Mice with more than 3 visible hepatic tumour nodules,B16/F10 melanoma cells; [5],38%
same,Spleen weight,B16/F10 melanoma cells; [5],227 ± 36 mg
same,Animals free of macroscopically detectable liver metastases over total number of mice,B16/F10 melanoma cells; [6],7/14**
same,Mice with metastases larger than 3 mm,B16/F10 melanoma cells; [6],0%
same,Mice with more than 3 visible hepatic tumour nodules,B16/F10 melanoma cells; [6],21%
same,Spleen weight,B16/F10 melanoma cells; [6],159 ± 7 mg
same,Animals free of macroscopically detectable liver metastases over total number of mice,B16/F10 melanoma cells; [7],8/16**
same,Mice with metastases larger than 3 mm,B16/F10 melanoma cells; [7],0%
same,Mice with more than 3 visible hepatic tumour nodules,B16/F10 melanoma cells; [7],13%
same,Spleen weight,B16/F10 melanoma cells; [7],149 ± 24 mg
same,pIC50,[4],6.30
HA-MTX [Ex 18],Animals free of macroscopically detectable liver metastases over total number of mice,B16/F10 melanoma cells; [8],6/15**
same,Mice with metastases larger than 3 mm,B16/F10 melanoma cells; [8],13%
same,Mice with more than 3 visible hepatic tumour nodules,B16/F10 melanoma cells; [8],27%
same,Spleen weight,B16/F10 melanoma cells; [8],155 ± 16 mg
same,Animals free of macroscopically detectable liver metastases over total number of mice,B16/F10 melanoma cells; [9],9/16***
same,Mice with metastases larger than 3 mm,B16/F10 melanoma cells; [9],0%
same,Mice with more than 3 visible hepatic tumour nodules,B16/F10 melanoma cells; [9],31%
same,Spleen weight,B16/F10 melanoma cells; [9],199 ± 27 mg
same,Animals free of macroscopically detectable liver metastases over total number of mice,B16/F10 melanoma cells; [10],14/14***^§
same,Mice with metastases larger than 3 mm,B16/F10 melanoma cells; [10],0%^; 0%°
same,Mice with more than 3 visible hepatic tumour nodules,B16/F10 melanoma cells; [10],0%^; 0%°
same,Spleen weight,B16/F10 melanoma cells; [10],150 ± 37 mg
same,"Dose giving comparable liver metastasis reduction, as fraction of the MTX-Na dose",B16/F10 melanoma cells; 1 and 0.5 mg/kg/day vs 6 and 3 mg/kg/day MTX-Na,⅙
same,Prevention of formation of liver metastasis,B16/F10 melanoma cells; both after i.v. and i.p. administration,effective in preventing the formation of liver metastasis
same,Effect on liver metastases of B16/F10 melanoma,"B16/F10 melanoma cells; i.v. 2 mg/kg/day (MTX equivalents) on days 3,6,9",complete disappearance of liver metastases
